The values that follow are results of earlier work, collected in patent US12133876B2, “TryNOVID boosts immune system against viruses and variants” (priority 2022, dated 2024).

One series concerns enveloped viruses. The note with it: Coronavirus, HIV, Measles virus, Herpes simplex virus type 1 and 2, Influenza virus and other listed enveloped viruses (Lieberman et al., 2006).
Another series has as its system COVID-19. The note with it: high dose; patients requiring hospitalization due to proven COVID-19; plus best-available therapy versus best-available therapy.
The next series relates to SARS-COV-2. As to conditions: binding to SARS-COV-2 (Kulkarni et al., 2020).

In the case of `CCCCCCCCCCCC(=O)OCC(O)CO` (stereo not shown) [Monolaurin, glycerol monolaurate], the “inactivation of enveloped viruses” value with enveloped viruses is “able to inactivate”.
Regarding `C=C1CC[C@H](O)C/C1=C/C=C1\CCC[C@]2(C)[C@@H]([C@H](C)CCCC(C)(C)O)CC[C@@H]12` [calcifediol, 25-hydroxyvitamin D], the “need for ICU treatment” value in the series with COVID-19 is “significantly reduced”.
For the compound `C=C1C2CCC(C2)C1(C)C` (stereo not shown) [camphene], the “binding affinities in molecular docking” value in the series on SARS-COV-2 is “good binding affinities”.
As for `CC1CCC(C(C)C)C(O)C1` (stereo not shown) [menthol], the “binding affinities in molecular docking” value in the series on SARS-COV-2 is “good binding affinities”.
Regarding `C=CC(C)=CCC=C(C)C` [ocimene], the “binding affinities in molecular docking” value in the series on SARS-COV-2 is recorded as “good binding affinities”.
Turning to `CC(C)=C1CC[C@@H](C)CC1=O` [pulegone], the “binding affinities in molecular docking” value with SARS-COV-2 is on record as “good binding affinities”.
Take `Cc1ccc(C(C)C)c(O)c1` [thymol]: in the series with SARS-COV-2, the “binding affinities in molecular docking” value was “good binding affinities”.
